Data on eight compounds can be found in patent US8912200B2, “Alkynyl substituted pyrimidinyl-pyrroles active as kinases inhibitors” (Nerviano Medical Sciences S.R.L., priority 2011, dated 2014).

In test [1] the target is T1, JAK2 kinase domain (Homo sapiens, UniProt O60674).
T1 construct: commercially available JAK2 kinase domain; purchased Invitrogen, Eugene, Oreg
Put plainly: Biochemical assay for inhibitors of JAK kinase activity (JAK2, 33P-γ-ATP/dowex resin). Particulars: JAK2 kinase domain 1 nM, 60 μM ATP. In a few lines: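 Human JAK2 (1 nM) phosphorylated peptide BioDBn*306 (64 μM) with 60 μM ATP plus 3 nM 33P-γ-ATP in HEPES pH 7.5/MgCl2/DTT buffer, 60 min at room temperature. Unreacted ATP captured by Dowex resin; supernatant β-counted. IC50 from sigmoidal fit of ten-point 1:3 dilution curves.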

Test [2] has as its target T2, Lyn full length (Homo sapiens, UniProt P07948).
T2 construct: The assay has been performed using Lyn full length
Description: Biochemical assay for inhibitors of Lyn (Src family) kinase activity. Particulars: Lyn full length 1 nM, 25 μM ATP. In a few lines:
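Radiometric Lyn assay: 1 nM full-length enzyme in 50 mM HEPES pH 7.5 with 25 μM ATP plus 33P-γ-ATP and 250 μM ABI 1 peptide, 60 min at room temperature. Unreacted ATP removed by Dowex resin; supernatant β-counted. IC50 from sigmoidal fit of ten-point 1:3 dilution curves.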

Test [3] relates to JAK2 dependent human megakaryoblastic leukemia cell line SET-2. Description: Cell proliferation assay (CellTiter-Glo, 72 hours). Format: cell-based. Particulars: SET-2 cells. In a few lines: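 About 5×10^3 SET-2 cells per well, in RPMI-1640 with 10% FBS, were exposed to inhibitor dilutions for 72 hours at 37 °C, 5% CO2. Viability read by CellTiter-Glo luminescence. IC50 from sigmoidal fitting of 8-point dilution curves.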
On the technique in general: ATP-based viability assays read luminescence as a measure of living cells.

T2 sequence (P07948 whole entry): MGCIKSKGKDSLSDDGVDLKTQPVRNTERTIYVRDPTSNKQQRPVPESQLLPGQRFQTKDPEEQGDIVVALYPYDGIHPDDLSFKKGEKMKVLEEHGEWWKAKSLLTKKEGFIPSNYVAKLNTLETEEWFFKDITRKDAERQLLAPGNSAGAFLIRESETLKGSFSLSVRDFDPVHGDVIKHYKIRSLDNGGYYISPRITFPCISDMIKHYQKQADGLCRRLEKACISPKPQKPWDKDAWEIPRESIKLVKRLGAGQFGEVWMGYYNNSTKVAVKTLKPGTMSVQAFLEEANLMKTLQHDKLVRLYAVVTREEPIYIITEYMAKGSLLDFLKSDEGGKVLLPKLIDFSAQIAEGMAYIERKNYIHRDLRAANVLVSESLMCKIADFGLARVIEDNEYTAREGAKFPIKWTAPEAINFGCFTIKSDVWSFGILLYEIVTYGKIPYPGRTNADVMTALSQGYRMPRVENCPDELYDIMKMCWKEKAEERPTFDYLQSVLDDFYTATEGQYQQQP
T1 sequence (O60674 849-1124 limits assumed): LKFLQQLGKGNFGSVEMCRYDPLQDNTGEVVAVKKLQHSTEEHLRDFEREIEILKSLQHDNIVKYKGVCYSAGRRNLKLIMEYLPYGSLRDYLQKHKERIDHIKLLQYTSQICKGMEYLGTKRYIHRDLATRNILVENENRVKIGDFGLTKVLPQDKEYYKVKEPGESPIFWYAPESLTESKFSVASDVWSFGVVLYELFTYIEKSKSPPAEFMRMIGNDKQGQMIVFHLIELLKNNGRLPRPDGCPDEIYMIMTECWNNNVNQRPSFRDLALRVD

On to `Cc1ccc(Cl)cc1-c1[nH]c(-c2ccnc(N)n2)c(C#Cc2ccc(N3CCC(N(C)C)CC3)cc2)c1C(N)=O` [compound 96, 5-(2-Aminopyrimidin-4-yl)-2-(5-chloro-2-methylphenyl)-4-({4-[4-(dimethylamino)piperidin-1-yl]phenyl}ethynyl)-1H-pyrrole-3-carboxamide], for which the values for the IC50 in test [1], in test [2] and in test [3] (Homo sapiens) were 4 nM, 93 nM and 210 nM, respectively.

Turning to `Cc1ccc(Cl)cc1-c1[nH]c(-c2ccnc(N)n2)c(C#Cc2ccc(N3CCC(N4CCCCC4)CC3)cc2)c1C(N)=O` [compound 97, 5-(2-Aminopyrimidin-4-yl)-4-{[4-(1,4′-bipiperidin-1′-yl)phenyl]ethynyl}-2-(5-chloro-2-methylphenyl)-1H-pyrrole-3-carboxamide], the IC50 – broadly, the concentration at which inhibition is half-maximal – was 12 nM in test [1], 293 nM in test [2] and 740 nM in test [3] (Homo sapiens).

With `Cc1ccc(Cl)cc1-c1[nH]c(-c2ccnc(N)n2)c(C#Cc2ccc(N3CCC(N4CCCC4)CC3)cc2)c1C(N)=O` [compound 98, 5-(2-Aminopyrimidin-4-yl)-2-(5-chloro-2-methylphenyl)-4-({4-[4-(pyrrolidin-1-yl)piperidin-1-yl]phenyl}ethynyl)-1H-pyrrole-3-carboxamide], the IC50 was 36 nM in test [1], 208 nM in test [2] and 1640 nM in test [3] (Homo sapiens).

Turning to `Cc1ccc(Cl)cc1-c1[nH]c(-c2ccnc(N)n2)c(C#Cc2ccc(N3CCNCC3)cc2)c1C(N)=O` [compound 99, 5-(2-Aminopyrimidin-4-yl)-2-(5-chloro-2-methylphenyl)-4-{[4-(piperazin-1-yl)phenyl]ethynyl}-1H-pyrrole-3-carboxamide], the IC50 is 2 nM in test [1], 26 nM in test [2] and 410 nM in test [3] (Homo sapiens).

In the case of `CCc1ccc(Cl)cc1-c1[nH]c(-c2ccnc(N)n2)c(C#Cc2ccccc2NCCN(C)C)c1C(N)=O` [compound 101, 5-(2-Aminopyrimidin-4-yl)-2-(5-chloro-2-ethylphenyl)-4-[(2-{[2-(dimethylamino)ethyl]amino}phenyl)ethynyl]-1H-pyrrole-3-carboxamide], the IC50 in test [1] came to 5 nM; in test [2] it was 25 nM; in test [3] (Homo sapiens) it was 200 nM.

For the compound `CCc1ccc(Cl)cc1-c1[nH]c(-c2ccnc(N)n2)c(C#Cc2cccc(OC3CCN(C)CC3)c2)c1C(N)=O` [compound 102, 5-(2-Aminopyrimidin-4-yl)-2-(5-chloro-2-ethylphenyl)-4-({3-[(1-methylpiperidin-4-yl)oxy]phenyl}ethynyl)-1H-pyrrole-3-carboxamide], the IC50 in test [1] was determined as 1 nM; in test [2], 6 nM; in test [3] (Homo sapiens), 240 nM.

Consider `CCc1ccc(Cl)cc1-c1[nH]c(-c2ccnc(N)n2)c(C#Cc2ccc(N3CCN(C)CC3)cc2)c1C(N)=O` [compound 103, 5-(2-Aminopyrimidin-4-yl)-2-(5-chloro-2-ethylphenyl)-4-{[4-(4-methylpiperazin-1-yl)phenyl]ethynyl}-1H-pyrrole-3-carboxamide], for which the IC50 in test [1] worked out at 4 nM; in test [2] it was 23 nM; in test [3] (Homo sapiens) it was 180 nM.

Turning to “[(2-Aminophenyl)ethynyl]-4-(2-Amino-phenylethynyl)-5-(2-amino-pyrimidin-4-yl)-2-(5-chloro-2-methyl-phenyl)-1H-pyrrole-3-carboxamide [compound 74]”, the IC50 in test [1] was found to be 4 nM; in test [2], 13 nM; in test [3], 120 nM.
